In PubChem BioAssay (NCI):
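A five-concentration, 48-hour dose response in 96-well plates underlies each endpoint, interpolated linearly between surrounding concentrations. GI50 is the concentration that inhibits growth by half. The concentration for full growth arrest is given as TGI.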

Legend:
Assay in all cases: inhibition of tumour cell growth, NCI panel, 48 h
[1] = test system: CCRF-CEM leukemia
[2] = test system: HCT-15 colon
[3] = test system: MOLT-4 leukemia
[4] = test system: OVCAR-8 ovarian
[5] = test system: SK-MEL-5 melanoma
[6] = test system: UACC-257 melanoma
[7] = test system: MCF7 breast
[8] = test system: NCI/ADR-RES ovarian
[9] = test system: MDA-MB-231 breast
[10] = test system: PC-3 prostate

Row | Structure (SMILES) | TGI [1] [µM] | TGI [2] [µM] | TGI [3] [µM] | TGI [4] [µM] | TGI [5] [µM] | TGI [6] [µM] | GI50 [1] [µM] | GI50 [2] [µM] | GI50 [7] [µM] | TGI [7] [µM] | GI50 [3] [µM] | GI50 [8] [µM] | TGI [8] [µM] | GI50 [4] [µM] | GI50 [5] [µM] | GI50 [9] [µM] | TGI [9] [µM] | GI50 [10] [µM] | TGI [10] [µM] | GI50 [6] [µM]
1 | CNC1=C(C)C(=O)C(C)=C(C(C)(C)CC(=O)n2cc(F)c(=O)[nH]c2=O)C1=O | > 100 | > 100 | > 100 | > 100 | > 100 | > 100 | – | – | – | – | – | – | – | – | – | – | – | – | – | –
2 | O=C(O)c1cn(C2CC2)c2cc(N3CCN(S(=O)(=O)c4ccc(Cl)c(Cl)c4)CC3)c(F)cc2c1=O | > 100 | > 100 | > 100 | > 100 | 4.42 | – | 2.61 | 3.3 | 2.84 | > 100 | 4 | 4.01 | > 100 | 3.33 | 2.04 | – | – | – | – | –
3 | COc1cc2c(c3oc(-c4ccc5c(c4)OCO5)c(O)c(=O)c13)CCC(C)(C)O2 | > 100 | > 100 | > 100 | > 100 | > 100 | – | – | – | – | – | – | – | – | – | – | – | – | – | – | –
4 | C#CCOCn1cnc2ncnc(Cl)c21 | > 100 | – | > 100 | > 100 | > 100 | > 100 | – | – | – | – | – | – | – | – | – | – | – | – | – | –
5 | COc1cc(C)c(C(=O)/C=C/c2cc(OC)c(O)c(OC)c2)cc1O | 62.7 | – | > 100 | > 100 | 33.6 | > 100 | – | – | – | – | – | – | – | – | – | – | – | – | – | –
6 | COc1cc(C2[C@H]3C(=O)N(c4ccc(Cc5ccc(N6C(=O)[C@@H]7ON(c8ccccc8)C(c8cc(OC)c(OC)c(OC)c8)[C@@H]7C6=O)cc5)cc4)C(=O)[C@H]3ON2c2ccccc2)cc(OC)c1OC (some centres undefined) | > 100 | > 100 | > 100 | > 100 | > 100 | > 100 | – | – | – | – | – | – | – | – | – | – | – | – | – | –
7 | C[C@@H]1CN(Cc2ccc(/C=C/c3n[nH]c4ccc5nc(-c6cn[nH]c6C(F)(F)F)c6c(c5c34)CCCC6)cc2)C[C@H](C)O1 | 34.2 | 11.3 | 23.2 | 23.1 | 24.7 | 30.9 | 0.718 | 1.76 | 1.53 | 14.9 | 2.6 | 4.76 | 19.9 | 4.76 | 12.2 | 3.24 | 15.5 | 3.93 | 18.8 | 13.3
8 | Clc1ccccc1-c1nc2ccccc2[nH]1 | > 100 | > 100 | > 100 | > 100 | > 100 | > 100 | > 100 | > 100 | > 100 | > 100 | > 100 | > 100 | > 100 | > 100 | > 100 | > 100 | > 100 | > 100 | > 100 | > 100
9 | NC1=CC(=O)C(=O)c2cccnc21 | 10.5 | 23.4 | 8.41 | 16.6 | 2.84 | 6.7 | 3.16 | 5.37 | 3.74 | 16.8 | 3.15 | 3.6 | 24 | 3.21 | 1.51 | 1.93 | 18.8 | 11.2 | 49.2 | 2.23
10 | CSc1nc2c(nc(N)n2C2OCC(O)C(O)C2O)c(=O)[nH]1 (centres undefined) | > 100 | – | > 100 | > 100 | > 100 | > 100 | – | – | – | – | – | – | – | – | – | – | – | – | – | –
11 | CC(=O)Nc1ccc(-c2nnc(SCC(=O)Nc3ccccc3[N+](=O)[O-])o2)cc1 | > 100 | > 100 | > 100 | > 100 | > 100 | > 100 | – | – | – | – | – | – | – | – | – | – | – | – | – | –
12 | N=C(N)n1[nH]c2c(c1=O)CCC2 | > 100 | > 100 | – | > 100 | > 100 | > 100 | – | – | – | > 100 | – | – | > 100 | – | – | – | > 100 | – | > 100 | –
13 | CCCCNC(=S)/N=C/c1c(O)c2ccccc2oc1=O | – | > 100 | > 100 | > 100 | > 100 | > 100 | – | – | – | > 100 | – | – | > 100 | – | – | – | > 100 | – | > 100 | –
14 | O=C1c2cnccc2Cc2cccc3c2N1c1ccccc1S3 | 85 | > 100 | > 100 | – | 39 | 59 | – | – | – | – | – | – | – | – | – | – | – | – | – | –
15 | COc1ccc(-c2nnc3n(C)c(=O)c4ccccc4n23)cc1O | > 100 | > 100 | > 100 | > 100 | > 100 | – | 1.81 | 0.153 | 0.13 | > 100 | 1.17 | 0.154 | 33.9 | 1.52 | 0.15 | 2.29 | 31.7 | 0.611 | > 100 | –
16 | COc1cc(NCC(C#N)C#N)ccc1N=Nc1ccc([N+](=O)[O-])cc1 | > 100 | > 100 | > 100 | > 100 | > 100 | > 100 | – | – | – | – | – | – | – | – | – | – | – | – | – | –
17 | NNC(=O)CC(=O)Nc1ccccc1F | > 100 | > 100 | > 100 | > 100 | > 100 | > 100 | – | – | – | – | – | – | – | – | – | – | – | – | – | –
18 | O=C1C=C(N2CC2)c2ccccc2C1=O | 6.23 | 3.79 | 5.77 | 2.86 | 3.04 | 3.1 | 2.32 | 1.85 | 1.48 | 3.76 | 1.99 | 1.94 | 5.83 | 1.46 | 1.6 | 2.05 | 5.11 | – | – | 1.69
19 | CC1=C(C(=O)Nc2ccccc2C)C(c2ccc(N(C)C)cc2)C(C(=O)Nc2ccccc2C)=C(C)N1 | > 100 | > 100 | > 100 | > 100 | > 100 | > 100 | – | – | – | – | – | – | – | – | – | – | – | – | – | –
